Where two headings read alike, the source gives them in different places. Blank lines part the entries; values can stand above or below the compound they belong to.
Experiments:
[1] = molecular target: T1, glycine recognition site of the NMDA receptor-ion channel complex (cortical membranes) (Homo sapiens, UniProt Q05586); experiment: displacement of labelled glycine from cortical membranes; format: binding
T1 construct: from tissue
Description: (§1) 1) they displace labelled glycine from cortical membranes with an EC50 value 5-10 times lower than that of kynurenate;

[2] = molecular target: T2, glycine recognition site of the NMDA receptor-ion channel complex (cortical membranes), UniProt Q05586); experiment: as above; format: binding; settings: cortical membranes; read-out: concentration displacing 50% of labelled glycine from its binding sites
T2 construct: from tissue
Description: as §1

[3] = tested on: NMDA receptors present on guinea-pig ileum; experiment: antagonism of glutamate or NMDA actions on guinea-pig ileum; format: cell-based; settings: guinea-pig terminal ileum; read-out: concentration antagonising 50% of glutamate or NMDA actions
Description: 2) they antagonise in […] way the glutamate effect on NMDA receptors present on guinea-pig ileum: on this test their effect is competitively antagonized by glycine.

[4] = tested on: mouse cerebral cortex slices; experiment: antagonism of glutamate or NMDA actions on mouse cerebral cortex slices; format: cell-based; settings: brain slices, read-out: concentration antagonising 50% of glutamate or NMDA actions
Description: (§2) The compounds I were also active in mouse cerebral cortex slices according to Proc. Natl. Acad. Sci. USA 85; 6547-6550--1988, in the prevention of glutamate toxicity in cultured cells and in the prevention of NMDA induced convulsions in mice.

cultured cells = experiment: prevention of glutamate toxicity in cultured cells; format: cell-based
Description: as §2

[5] = tested on: NMDA receptors present on guinea-pig ileum; settings: guinea-pig myenteric plexus; cited from earlier work

SMILES: O=C(O)c1cc(S)c2ccccc2n1 [thiokynurenic acid, 4-thio-quinoline-2-carboxylic (thiokynurenic) acid]
mode of action at the glycine receptors [1]: competitive antagonists of the glycine receptors
mode of action at the glycine receptors ([1]; listed as 4thiokynurenic acid): competitive antagonists of a particular kind of glycine receptors

IC50 [2]: 1 µM
IC50 [3]: 5 µM
IC50 [4]: 5 µM
SMILES: O=C(O)c1cc(S)c2ccc(Cl)cc2n1 [7-chloro-4-thiokynurenic acid, 7-chloro-4-thio-quinoline-2-carboxylic acid]
concentration antagonising the glutamate neurotoxicity (cultured cells): 0.08 µM

SMILES: O=C(O)c1cc(=O)c2ccccc2[nH]1 [kynurenic acid]
antagonistic activity of the glutamate effect [5]: antagonistic activity of the glutamate effect

— patent US5250541A, “Kynurenic acid derivatives, their preparation and pharmaceutical compositions containing them” (Fidia S.p.A., priority 1989, dated 1993)
